We go through 20 compounds from patent US11001590B2, “Pyrazolopyrimidine derivatives” (BAYER ANIMAL HEALTH GMBH, priority 2016, dated 2021).

Structures are written as SMILES. A value given as a limit tells only on which side of the number the result lay.

What is called EC50 is the concentration needed to bring the measured effect to its halfway point. One may read the chromatographic logP as lipophilicity estimated from chromatographic retention.

The first series relates to Dirofilaria immitis microfilariae. The series is described as follows: In vitro assay 3: Dirofilaria immitis microfilariae (DIROIM L1), motility. The settings on record: 72 h, reduction of motility vs negative control, 72 h incubation.
For the compound `Cc1nn2c(C(C)C)c(C(=O)N[C@H]3CCc4ccccc43)cnc2c1-c1ccc(Cl)cc1Cl` [Example 181], the concentration giving a half-maximal response (EC50) was below 0.1 µg/mL.
`COc1cc(-c2c(C)nn3c(C(C)C)c(C(=O)N[C@H]4CCOc5ccccc54)cnc23)cc(OC)c1OC` [Example 249] displayed an EC50 below 1 µg/mL.
The compound `Cc1nn2c(C(C)C)c(C(=O)N[C@H]3CCOc4ccccc43)cnc2c1-c1cc(F)c(F)c(F)c1` [Example 185] came in with an EC50 below 1 µg/mL.
With `COCc1cccc(-c2c(C(F)(F)F)nn3c(C(C)C)c(C(=O)N[C@H]4CCc5ccccc54)cnc23)c1` [Example 144], the EC50 was below 10 µg/mL.
On the same count and under the same terms, next, `Cc1nn2c(C3CC3)c(C(=O)N[C@H]3CCOc4ccccc43)cnc2c1-c1ccc(Cl)nc1` [Example 525]: below 10 µg/mL.
In turn, `Cc1nn2c(C(C)C)c(C(=O)N[C@H]3CCCc4ccccc43)cnc2c1-c1ccc(F)cc1` [Example 343] returned an EC50 below 10 µg/mL.
Same read-out and setting: next, `Cc1nn2c(C(C)C)c(C(=O)N[C@H]3CCOc4ccccc43)cnc2c1-c1cc(F)c(Cl)c(F)c1` [Example 190]: below 1 µg/mL.
Same read-out and setting: with `Cc1nn2c(C(C)C)c(C(=O)N[C@H]3CCOc4ccccc43)cnc2c1-c1cccc(Cl)n1` [Example 195] the figure was below 10 µg/mL; with `Cc1c(C(=O)N[C@H]2CCc3ccccc32)cnc2c(-c3ccccc3Cl)c(Cl)nn12` [Example 74], below 1 µg/mL.
`Cc1nn2c(C3CC3)c(C(=O)N[C@H]3CCc4ccccc43)cnc2c1-c1cnn(CC2CC2)c1` [Example 446] gave an EC50 below 10 µg/mL.
Same read-out and setting: with `COc1cc(-c2c(C)nn3c(C4CC4)c(C(=O)N[C@H]4CCc5ccccc54)cnc23)cc(C(F)(F)F)c1` [Example 423] the figure was below 10 µg/mL; with `Cc1nn2c(C3CC3)c(C(=O)N[C@H]3CCc4ccccc43)cnc2c1-c1cccc(OC(F)(F)F)c1` [Example 360], below 1 µg/mL.
The same measure, in the same setting: next, `Cc1nn2c(C3CC3)c(C(=O)N[C@H]3CCc4ccccc43)cnc2c1-c1cccc(N2CC(F)(F)C2)c1` [Example 441]: below 1 µg/mL; `Cc1nn2c(C3CC3)c(C(=O)N[C@H]3CCc4ccccc43)cnc2c1-c1cccc(OC2CC2)c1` [Example 418]: below 0.1 µg/mL; `Cc1nn2c(C(C)C)c(C(=O)N[C@H]3CCc4ccccc43)cnc2c1-c1cccc(N2CCCCC2)c1` [Example 356]: below 10 µg/mL.
Same read-out and setting: next, `COc1cccc(-c2c(C)nn3c(C4CC4)c(C(=O)N[C@H]4CCOc5ccccc54)cnc23)c1` [Example 454]: below 0.1 µg/mL.
`Cc1nn2c(C(C)C)c(C(=O)N[C@H]3CCOc4ccccc43)cnc2c1-c1cnc(F)c(F)c1` [Example 221]: the EC50 is below 1 µg/mL.
Same read-out and setting: next, `Cc1nn2c(C(C)C)c(C(=O)N[C@H]3CCc4ccccc43)cnc2c1-c1cccc(S(C)(=O)=O)c1` [Example 288]: below 10 µg/mL; `CC(C)c1c(C(=O)N[C@H]2CCc3ccccc32)cnc2c(-c3cccc(F)c3)c(C(F)F)nn12` [Example 429]: below 10 µg/mL.
In turn, `Cc1nn2c(C(C)C)c(C(=O)N[C@H]3CCCc4ccccc43)cnc2c1-c1ccc2c(c1)OC(F)(F)O2` [Example 148] gave a concentration giving a half-maximal response (EC50) below 10 µg/mL.

Tested on in another series: not listed separately
The series is described as follows: log P by HPLC on reversed phase columns (Method L0; [a] acidic, [b] neutral range).
Details: not given
`Cc1nn2c(C(C)C)c(C(=O)N[C@H]3CCc4ccccc43)cnc2c1-c1ccc(Cl)cc1Cl` [Example 181] displayed a chromatographic logP of 5.31.
Still for that read-out and setting: with `COc1cc(-c2c(C)nn3c(C(C)C)c(C(=O)N[C@H]4CCOc5ccccc54)cnc23)cc(OC)c1OC` [Example 249] the figure was 3.94; with `Cc1nn2c(C(C)C)c(C(=O)N[C@H]3CCOc4ccccc43)cnc2c1-c1cc(F)c(F)c(F)c1` [Example 185], 4.97.
On the same count and under the same terms, with `COCc1cccc(-c2c(C(F)(F)F)nn3c(C(C)C)c(C(=O)N[C@H]4CCc5ccccc54)cnc23)c1` [Example 144] the figure was 4.87; with `Cc1nn2c(C3CC3)c(C(=O)N[C@H]3CCOc4ccccc43)cnc2c1-c1ccc(Cl)nc1` [Example 525], 2.96; with `Cc1nn2c(C(C)C)c(C(=O)N[C@H]3CCCc4ccccc43)cnc2c1-c1ccc(F)cc1` [Example 343], 4.95.
As for `Cc1nn2c(C(C)C)c(C(=O)N[C@H]3CCOc4ccccc43)cnc2c1-c1cc(F)c(Cl)c(F)c1` [Example 190], the chromatographic logP is 5.39.
On the same count and under the same terms, with `Cc1nn2c(C(C)C)c(C(=O)N[C@H]3CCOc4ccccc43)cnc2c1-c1cccc(Cl)n1` [Example 195] the figure was 4.85; with `Cc1c(C(=O)N[C@H]2CCc3ccccc32)cnc2c(-c3ccccc3Cl)c(Cl)nn12` [Example 74], 3.99.
Same read-out and setting: next, `Cc1nn2c(C3CC3)c(C(=O)N[C@H]3CCc4ccccc43)cnc2c1-c1cnn(CC2CC2)c1` [Example 446]: 3.15; `COc1cc(-c2c(C)nn3c(C4CC4)c(C(=O)N[C@H]4CCc5ccccc54)cnc23)cc(C(F)(F)F)c1` [Example 423]: 4.7.
`Cc1nn2c(C3CC3)c(C(=O)N[C@H]3CCc4ccccc43)cnc2c1-c1cccc(OC(F)(F)F)c1` [Example 360] showed a chromatographic logP of 4.72.
Still for that read-out and setting: with `Cc1nn2c(C3CC3)c(C(=O)N[C@H]3CCc4ccccc43)cnc2c1-c1cccc(N2CC(F)(F)C2)c1` [Example 441] the figure was 4.16.
Same read-out and setting: next, `Cc1nn2c(C3CC3)c(C(=O)N[C@H]3CCc4ccccc43)cnc2c1-c1cccc(OC2CC2)c1` [Example 418]: 4.29.
The same measure, in the same setting: with `Cc1nn2c(C(C)C)c(C(=O)N[C@H]3CCc4ccccc43)cnc2c1-c1cccc(N2CCCCC2)c1` [Example 356] the figure was 3.25; with `COc1cccc(-c2c(C)nn3c(C4CC4)c(C(=O)N[C@H]4CCOc5ccccc54)cnc23)c1` [Example 454], 3.5.
The compound `Cc1nn2c(C(C)C)c(C(=O)N[C@H]3CCOc4ccccc43)cnc2c1-c1cnc(F)c(F)c1` [Example 221] displayed a chromatographic logP of 4.13.
On the same count and under the same terms, next, `Cc1nn2c(C(C)C)c(C(=O)N[C@H]3CCc4ccccc43)cnc2c1-c1cccc(S(C)(=O)=O)c1` [Example 288]: 3.57; `CC(C)c1c(C(=O)N[C@H]2CCc3ccccc32)cnc2c(-c3cccc(F)c3)c(C(F)F)nn12` [Example 429]: 4.57.
On the same count and under the same terms, next, `Cc1nn2c(C(C)C)c(C(=O)N[C@H]3CCCc4ccccc43)cnc2c1-c1ccc2c(c1)OC(F)(F)O2` [Example 148]: 5.59.

The target of the next series is C. elegans Slo-1a (Caenorhabditis elegans, UniProt Q95V25). The series is described as follows: In vitro assay 1: C. elegans Slo-1a, action at a recombinant C. elegans CHO cell line (membrane potential measurement).
C. elegans Slo-1a, sequence (Q95V25 whole entry): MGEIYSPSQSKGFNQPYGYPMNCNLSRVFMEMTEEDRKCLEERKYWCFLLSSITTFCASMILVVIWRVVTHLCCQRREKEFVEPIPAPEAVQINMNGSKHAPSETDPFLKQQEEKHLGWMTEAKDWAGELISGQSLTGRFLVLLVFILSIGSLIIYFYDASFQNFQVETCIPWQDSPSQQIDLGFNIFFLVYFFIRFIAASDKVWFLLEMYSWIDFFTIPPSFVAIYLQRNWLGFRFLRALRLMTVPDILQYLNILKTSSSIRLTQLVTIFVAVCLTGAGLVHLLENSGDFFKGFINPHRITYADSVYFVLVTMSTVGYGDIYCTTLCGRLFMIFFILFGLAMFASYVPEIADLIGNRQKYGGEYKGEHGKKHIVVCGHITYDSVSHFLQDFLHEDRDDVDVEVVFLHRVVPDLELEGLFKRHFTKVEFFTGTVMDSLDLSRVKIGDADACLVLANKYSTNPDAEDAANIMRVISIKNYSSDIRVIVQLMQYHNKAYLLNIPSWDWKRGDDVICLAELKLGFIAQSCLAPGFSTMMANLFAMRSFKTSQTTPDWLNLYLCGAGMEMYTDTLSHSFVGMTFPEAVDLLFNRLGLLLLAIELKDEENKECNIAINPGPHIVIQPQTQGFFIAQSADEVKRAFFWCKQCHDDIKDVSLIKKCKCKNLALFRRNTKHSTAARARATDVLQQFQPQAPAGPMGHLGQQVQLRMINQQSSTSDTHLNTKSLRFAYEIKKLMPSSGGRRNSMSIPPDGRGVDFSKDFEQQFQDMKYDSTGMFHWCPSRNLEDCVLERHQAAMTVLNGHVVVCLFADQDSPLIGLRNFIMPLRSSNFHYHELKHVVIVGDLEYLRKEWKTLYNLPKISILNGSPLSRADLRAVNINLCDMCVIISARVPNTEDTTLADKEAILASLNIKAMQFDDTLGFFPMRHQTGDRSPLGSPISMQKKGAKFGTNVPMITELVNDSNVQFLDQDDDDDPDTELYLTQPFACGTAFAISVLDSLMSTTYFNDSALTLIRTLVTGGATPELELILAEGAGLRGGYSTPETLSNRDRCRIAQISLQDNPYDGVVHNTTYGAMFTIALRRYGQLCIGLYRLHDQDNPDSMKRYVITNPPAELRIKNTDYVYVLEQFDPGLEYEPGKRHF
Details: not given
Regarding `Cc1nn2c(C(C)C)c(C(=O)N[C@H]3CCc4ccccc43)cnc2c1-c1ccc(Cl)cc1Cl` [Example 181], the EC50 is 12.6 nM.
As for `COc1cc(-c2c(C)nn3c(C(C)C)c(C(=O)N[C@H]4CCOc5ccccc54)cnc23)cc(OC)c1OC` [Example 249], the EC50 is 158 nM.
In the case of `Cc1nn2c(C(C)C)c(C(=O)N[C@H]3CCOc4ccccc43)cnc2c1-c1cc(F)c(F)c(F)c1` [Example 185], the EC50 is 12.6 nM.
`COCc1cccc(-c2c(C(F)(F)F)nn3c(C(C)C)c(C(=O)N[C@H]4CCc5ccccc54)cnc23)c1` [Example 144]: the EC50 is 158 nM.
`Cc1nn2c(C3CC3)c(C(=O)N[C@H]3CCOc4ccccc43)cnc2c1-c1ccc(Cl)nc1` [Example 525]: the EC50 was 79.4 nM.
On the same count and under the same terms, next, `Cc1nn2c(C(C)C)c(C(=O)N[C@H]3CCCc4ccccc43)cnc2c1-c1ccc(F)cc1` [Example 343]: 20 nM; `Cc1nn2c(C(C)C)c(C(=O)N[C@H]3CCOc4ccccc43)cnc2c1-c1cc(F)c(Cl)c(F)c1` [Example 190]: 25.1 nM; `Cc1nn2c(C(C)C)c(C(=O)N[C@H]3CCOc4ccccc43)cnc2c1-c1cccc(Cl)n1` [Example 195]: 158 nM.
Still for that read-out and setting: with `Cc1c(C(=O)N[C@H]2CCc3ccccc32)cnc2c(-c3ccccc3Cl)c(Cl)nn12` [Example 74] the figure was 39.8 nM; with `Cc1nn2c(C3CC3)c(C(=O)N[C@H]3CCc4ccccc43)cnc2c1-c1cnn(CC2CC2)c1` [Example 446], 12.6 nM.
On the same count and under the same terms, with `COc1cc(-c2c(C)nn3c(C4CC4)c(C(=O)N[C@H]4CCc5ccccc54)cnc23)cc(C(F)(F)F)c1` [Example 423] the figure was 63.1 nM.
Turning to `Cc1nn2c(C3CC3)c(C(=O)N[C@H]3CCc4ccccc43)cnc2c1-c1cccc(OC(F)(F)F)c1` [Example 360], the EC50 is 12.6 nM.
In the case of `Cc1nn2c(C3CC3)c(C(=O)N[C@H]3CCc4ccccc43)cnc2c1-c1cccc(N2CC(F)(F)C2)c1` [Example 441], the EC50 is 10 nM.
On to `Cc1nn2c(C3CC3)c(C(=O)N[C@H]3CCc4ccccc43)cnc2c1-c1cccc(OC2CC2)c1` [Example 418], for which the concentration giving a half-maximal response (EC50) is 3.16 nM.
On the same count and under the same terms, next, `Cc1nn2c(C(C)C)c(C(=O)N[C@H]3CCc4ccccc43)cnc2c1-c1cccc(N2CCCCC2)c1` [Example 356]: 158 nM; `COc1cccc(-c2c(C)nn3c(C4CC4)c(C(=O)N[C@H]4CCOc5ccccc54)cnc23)c1` [Example 454]: 3.98 nM; `Cc1nn2c(C(C)C)c(C(=O)N[C@H]3CCOc4ccccc43)cnc2c1-c1cnc(F)c(F)c1` [Example 221]: 10 nM.
Same read-out and setting: next, `Cc1nn2c(C(C)C)c(C(=O)N[C@H]3CCc4ccccc43)cnc2c1-c1cccc(S(C)(=O)=O)c1` [Example 288]: 200 nM; `CC(C)c1c(C(=O)N[C@H]2CCc3ccccc32)cnc2c(-c3cccc(F)c3)c(C(F)F)nn12` [Example 429]: 39.8 nM.
The same measure, in the same setting: with `Cc1nn2c(C(C)C)c(C(=O)N[C@H]3CCCc4ccccc43)cnc2c1-c1ccc2c(c1)OC(F)(F)O2` [Example 148] the figure was 39.8 nM.
